Experimental data taken from patent US20110251211A9, “METHODS OF USING SUBSTITUTED ISOXAZOLO PYRIDINONES AS DISSOCIATED GLUCOCORTICOIDS” (priority 2009, published 2011).

What was measured:
Type in all cases: cell-based
GR [1] = biological target: T1, GR (Homo sapiens, UniProt P04150); assay: GR transactivation on MMTV in AD293 cells (pHHLuc dual-luciferase reporter); conditions: FIG. 5
T1 construct: expressed in transfected cells; host or cells: AD293 cells
T1 sequence (P04150 1-777): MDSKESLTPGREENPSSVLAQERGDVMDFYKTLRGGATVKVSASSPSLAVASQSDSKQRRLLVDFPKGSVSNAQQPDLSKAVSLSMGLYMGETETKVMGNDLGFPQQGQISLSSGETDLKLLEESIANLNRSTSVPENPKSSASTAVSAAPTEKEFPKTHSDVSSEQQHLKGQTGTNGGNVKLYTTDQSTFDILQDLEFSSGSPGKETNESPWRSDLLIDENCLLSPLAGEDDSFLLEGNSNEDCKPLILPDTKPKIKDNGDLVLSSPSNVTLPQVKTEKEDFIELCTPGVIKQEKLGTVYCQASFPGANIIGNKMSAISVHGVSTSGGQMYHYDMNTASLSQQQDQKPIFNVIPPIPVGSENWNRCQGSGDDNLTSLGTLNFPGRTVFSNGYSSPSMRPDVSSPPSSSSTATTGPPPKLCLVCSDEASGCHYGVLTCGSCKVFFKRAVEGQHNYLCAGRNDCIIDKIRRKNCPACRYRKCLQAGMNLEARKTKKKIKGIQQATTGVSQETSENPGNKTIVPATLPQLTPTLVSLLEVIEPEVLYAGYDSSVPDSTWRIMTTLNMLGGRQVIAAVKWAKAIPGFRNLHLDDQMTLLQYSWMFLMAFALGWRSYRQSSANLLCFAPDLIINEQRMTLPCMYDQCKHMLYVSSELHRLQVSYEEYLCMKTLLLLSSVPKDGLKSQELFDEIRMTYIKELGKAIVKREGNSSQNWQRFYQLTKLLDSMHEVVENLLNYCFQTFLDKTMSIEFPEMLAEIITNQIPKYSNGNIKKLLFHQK
Description: GR Transactivation on MMTV in∘AD293 Cells Transfected with 0.5 ng GR
AD293 cells were transfected with 0.5 ng GR, 100 ng pHHLuc reporter together with 5 ng Renilla control plasmids, then induced by EtOH (vehicle control), Dexamethasone (10 nM), Compound #53 (5 μM), AL438 (1 μM) and DMSO (vehicle control). Dual-Luciferase values were measured by Promega standard manual, Compound #53's transactivation activity on MMTV in AD293 cells is shown in FIG. 5.

GR [2] = biological target: T1, GR; assay: GR transrepression of AP1 in AD293 cells (AP1-Luc dual-luciferase reporter)
Description: FIG. 9 is a bar graph showing the dose-response of Compound #53 on GR transrepression of AP1 in AD293 cells.
GR Transrepression of AP1 in AD293 Cells Transfected with 10 ng GR
AD293 cells were transfected with 10 ng GR, 100 ng AP1-Luc reporter together with 5 ng Renilla control plasmids, then induced by EtOH (vehicle control), Dexamethasone (10 nM), Compound #53 (5 μM), AL438 (1 μM). Dual-Luciferase values were measured by Promega standard manual.
GR Transpression of AP 1 in AD293 Cells Transfected with 50 ng GR
AD293 cells were transfected with 50 ng GR, 100 ng AP1-Luc reporter together with 5 ng Renilla control plasmids, then induced by PMA+EtOH (vehicle control), PMA+Dexamethasone (10 nM), PMA+Compound #53 (5 μM). Dual-Luciferase values were measured by Promega standard manual.

GR [3] = biological target: T1, GR; assay: GR transrepression of NF-kB in AD293 cells (pNF-kB-Luc dual-luciferase reporter)
Description: FIG. 10 is a bar graph showing the dose-response of Compound #53 on GR transrepression of NF-kB in AD293 cells.
GR Transrepression of NF-kB in AD293 Cells Transfected with 100 ng GR
[…] Dual-Luciferase values were measured by Promega standard manual.

[4] = dose-response repression experiments

## CN(C)Cc1ccc(-c2cc3onc(-c4ccccc4)c3c(=O)n2C)cc1 [Compound #53, 6-(4-((dimethylamino)methyl)phenyl)-5-methyl-3-phenylisoxazolo[4,5-c]pyridin-4(5H)-one]
GR [1]
  GR transactivation activity: minimal GR transactivation activity
GR [2]; FIGS. 6-7
  GR transrepression activity on AP1 compared with currently used GR ligands: stronger GR transrepression activity than currently used GR ligands
GR [2]; at 50 μM, dose-response, FIG. 9
  fold repression for AP1: about 2000
GR [2]; [4]
  AP-1 activity on the reporter: almost zero
GR [3]; FIG. 8
  GR transrepression activity on NF-kB compared with currently used GR ligands: stronger GR transrepression activity than currently used GR ligands
GR [3]; at 50 μM, dose-response, FIG. 10
  fold repression of NF-kB: about 1000
GR [3]; [4]
  NF-kB activity on the reporter: almost zero
